# The source made the active and inactive calls. The calls are words filed in the database; no cut-off is given here.
# Columns and labels:
# [1] = Lipophilicity, log D of the compound at pH 7.4; assay type: physicochemical; settings: buffer
# [2] = target: Free fatty acid receptor 1 (Homo sapiens, UniProt O14842); assay: Antagonist activity against human GPR40 expressed in HEK293s FLPIN cells assessed as elaidic acid stimulated IP1 release after 2 hrs by TR-FRET analysis; assay type: functional, cell-based
# [3] = Solubility of compound; assay type: physicochemical
# [4] = Oral absorption in rat; assay type: ADME, organism-based; settings: in vivo, read-out: Fabs
# Rattus norvegicus [5] = organism: Rattus norvegicus; assay: Unbound clearance in rat; assay type: ADME, organism-based; settings: in vivo
# [6] = Fraction unbound in rat plasma; assay type: ADME, cell-free
# Hepatocyte = assay: Intrinsic clearance in rat hepatocytes measured per 10^6 cells; assay type: ADME, cell-based
# [7] = Fraction unbound in human plasma; assay type: ADME, cell-free
# Liver microsome = assay: Intrinsic clearance in human liver microsomes […]; assay type: ADME
# [8] = target: Free fatty acid receptor 1 (Rattus norvegicus, UniProt Q8K3T4); assay: Antagonist activity against rat GPR40
# [9] = Clearance in rat; assay type: ADME, organism-based; settings: in vivo
# [10] = Oral bioavailability in rat; assay type: ADME, organism-based; settings: in vivo
# [11] = Volume of distribution at steady state in rat; assay type: ADME, organism-based; settings: in vivo, read-out: Vdss
# Rattus norvegicus [12] = assay: Inhibition of NEFA-driven plasma insulin level in male Zucker rat pretreated with beta3-agonist for 30 mins at 80 mg/kg measured 4 hrs post dosing by ELISA; assay type: functional
# [13] = target: Free fatty acid receptor 1 (Mus musculus) (UniProt Q76JU9); assay: Antagonist activity against mouse GPR40
# Rattus norvegicus [14] = assay: Effect on plasma insulin level in male Zucker rat at 80 mg/kg measured after 4 hrs by ELISA relative to vehicle control; assay type: ADME, organism-based; settings: in vivo
# Rattus norvegicus [15] = assay: Effect on plasma NEFA level in male Zucker rat at 80 mg/kg measured 4 hrs by ELISA assay relative to vehicle control; assay type: ADME, organism-based; settings: in vivo
# [16] = target: T1, Free fatty acid receptor 2 (Homo sapiens) (UniProt O15552); assay: Antagonist activity at GPR43 (unkown origin)
# T1 sequence (whole entry): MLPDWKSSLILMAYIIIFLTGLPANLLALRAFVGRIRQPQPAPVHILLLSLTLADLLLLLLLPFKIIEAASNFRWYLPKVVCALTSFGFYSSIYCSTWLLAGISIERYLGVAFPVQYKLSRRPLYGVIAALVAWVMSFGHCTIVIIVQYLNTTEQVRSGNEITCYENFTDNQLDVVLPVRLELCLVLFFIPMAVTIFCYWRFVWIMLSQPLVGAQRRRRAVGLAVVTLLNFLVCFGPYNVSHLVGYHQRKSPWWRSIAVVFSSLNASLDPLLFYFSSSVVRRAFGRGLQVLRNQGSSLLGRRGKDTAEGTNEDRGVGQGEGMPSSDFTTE
# Free fatty acid receptor 1 (Rattus norvegicus, UniProt Q8K3T4), sequence (Q8K3T4 whole entry): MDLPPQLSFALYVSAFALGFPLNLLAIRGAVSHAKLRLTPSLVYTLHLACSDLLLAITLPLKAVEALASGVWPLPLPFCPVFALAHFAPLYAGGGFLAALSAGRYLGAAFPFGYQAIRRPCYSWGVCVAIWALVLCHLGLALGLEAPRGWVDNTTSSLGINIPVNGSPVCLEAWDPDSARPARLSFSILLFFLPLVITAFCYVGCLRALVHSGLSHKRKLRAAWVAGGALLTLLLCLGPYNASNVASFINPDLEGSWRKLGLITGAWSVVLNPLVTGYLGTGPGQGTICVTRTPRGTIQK
# Free fatty acid receptor 1 (Homo sapiens, UniProt O14842), sequence (O14842 whole entry): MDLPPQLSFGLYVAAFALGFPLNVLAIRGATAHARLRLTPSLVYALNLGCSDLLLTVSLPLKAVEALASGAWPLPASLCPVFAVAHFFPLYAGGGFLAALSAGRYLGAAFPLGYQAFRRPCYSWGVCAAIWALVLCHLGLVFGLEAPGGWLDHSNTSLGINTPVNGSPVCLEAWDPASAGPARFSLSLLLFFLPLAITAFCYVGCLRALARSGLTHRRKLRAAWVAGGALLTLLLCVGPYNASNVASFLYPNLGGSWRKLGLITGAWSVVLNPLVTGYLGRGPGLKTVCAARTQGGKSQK
# Free fatty acid receptor 1 (Mus musculus), sequence (Q76JU9 whole entry): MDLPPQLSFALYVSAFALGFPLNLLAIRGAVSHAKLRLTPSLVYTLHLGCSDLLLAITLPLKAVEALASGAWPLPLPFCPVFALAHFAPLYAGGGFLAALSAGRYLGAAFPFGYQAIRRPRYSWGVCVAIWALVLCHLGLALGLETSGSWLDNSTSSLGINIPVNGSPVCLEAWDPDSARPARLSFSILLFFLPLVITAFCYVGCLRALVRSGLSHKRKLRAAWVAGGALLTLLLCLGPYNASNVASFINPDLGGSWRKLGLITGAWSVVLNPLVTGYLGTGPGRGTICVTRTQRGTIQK
logD [1],IC50 [2] [nM],SMILES,also measured
3.2,501,Cc1cc(COc2ccc(F)c(F)c2)nc(-c2ccccn2)n1,
2.7,10000,Cc1cc(COc2ccccc2C#N)nc(-c2ccccn2)n1,
3.6,1260,COc1cc(COc2cccc(F)c2)nc(-c2ccccn2)n1,
3.1,1580,Cc1cc(COc2c(F)ccc(F)c2F)nc(-c2ccccn2)n1,
3.1,794,Cc1cc(COc2cccc(F)c2)nc(-c2ccccn2)n1,
3.7,316,Fc1ccc(OCc2cc(OCC3COC3)nc(-c3ccccn3)n2)c(F)c1F,
3.3,501,Fc1ccc(OCc2cc(N3CC4(CCO4)C3)nc(-c3ccccn3)n2)c(F)c1F,
2.9,2000,COc1cccc(OCc2cc(C)nc(-c3ccccn3)n2)c1,
4.3,100,CC(C)Nc1cc(COc2cccc(F)c2)nc(-c2ccccn2)n1,
3.2,398,Cc1cc(COc2cc(F)c(F)cc2F)nc(-c2ccccn2)n1,
4.3,251,Cc1cc(N/N=C/c2ccccc2)nc(-c2ccccc2)n1,solubility [3]: < 0.3 µM
3.3,398,N#CCC1(COc2cc(COc3ccc(F)c(F)c3F)nc(-c3ccccn3)n2)COC1,
3.9,631,CCNc1cc(COc2cccc(F)c2)nc(-c2ccccn2)n1,
1.6,> 39800,CC(=O)Nc1ccccc1OCc1cc(C)nc(-c2ccccn2)n1,
1.5,> 39800,Cc1cc(COc2ccc(S(C)(=O)=O)cc2)nc(-c2ccccn2)n1,

# The next lines start with the compound.
SMILES,logD [1],IC50 [2] [nM],also measured
Cc1cc(COc2ccccc2)nc(-c2ccccn2)n1,3.4,794,
Fc1ccc(OCc2cc(OCC3CCC3)nc(-c3ccccn3)n2)c(F)c1F,4.5,12.6,
CC(=O)Nc1ccc(OCc2cc(C)nc(-c3ccccn3)n2)cc1,1.9,> 39800,
Cc1cc(COc2cccc(F)c2F)nc(-c2ccccn2)n1,3.2,398,
Cc1cc(COc2ccccc2F)nc(-c2ccccn2)n1,2.9,398,
Cc1cc(COc2ccc(Cl)cc2)nc(-c2ccccn2)n1,3.7,251,
CN(C)c1cc(COc2cccc(F)c2)nc(-c2ccccn2)n1,3.6,1580,
Cc1cc(COc2ccccc2S(C)(=O)=O)nc(-c2ccccn2)n1,1.5,> 39800,
Cc1cc(COc2cccc(Cl)c2)nc(-c2ccccn2)n1,3.7,398,
COC1(COc2cc(COc3ccc(F)c(F)c3F)nc(-c3ccccn3)n2)COC1,3.5,501,
Cc1cc(COc2cc(F)cc(F)c2F)nc(-c2ccccn2)n1,3.4,501,
Fc1ccc(OCc2cc(OCC(F)(F)F)nc(-c3ccccn3)n2)c(F)c1F,> 4.9,7.94,
COc1ccccc1OCc1cc(C)nc(-c2ccccn2)n1,2.5,2000,
Cc1cc(COc2ccc(C#N)cc2)nc(-c2ccccn2)n1,2.6,31600,
Cc1cc(COc2cc(F)c(F)c(F)c2)nc(-c2ccccn2)n1,3.4,398,
Cc1cc(COc2ccc(F)cc2F)nc(-c2ccccn2)n1,3.1,398,

SMILES,logD [1],IC50 [2] [nM],also measured
Cc1cc(COc2cccc(C#N)c2)nc(-c2ccccn2)n1,2.7,2510,
c1ccc(OCc2cc(N3CCOCC3)nc(-c3ccccn3)n2)cc1,2.8,631,
CC1(COc2cc(COc3ccc(F)c(F)c3F)nc(-c3ccccn3)n2)COC1,4,79.4,
CCOc1cc(COc2cccc(F)c2)nc(-c2ccccn2)n1,4.1,251,
CC1(CS(C)(=O)=O)CN(c2cc(COc3ccc(F)c(F)c3F)nc(-c3ccccn3)n2)C1,2.9,6310,
Cc1cc(COc2ccccc2Cl)nc(-c2ccccn2)n1,3.4,316,
COc1ccc(OCc2cc(C)nc(-c3ccccn3)n2)cc1,2.8,7940,
CC(=O)Nc1cccc(OCc2cc(C)nc(-c3ccccn3)n2)c1,2.1,> 39800,
Cc1cc(COc2c(F)cc(F)cc2F)nc(-c2ccccn2)n1,3.2,1260,
OC1CN(c2cc(COc3ccc(F)c(F)c3F)nc(-c3ccccn3)n2)C1,2.8,3160,
Cc1cc(COc2cccc(S(C)(=O)=O)c2)nc(-c2ccccn2)n1,1.7,> 39800,
Fc1ccc(OCc2cc(OCC3(F)COC3)nc(-c3ccccn3)n2)c(F)c1F,4,,Fa [4]: 16%; CL free (Rattus norvegicus [5]): 1100 mL/min/kg; fraction unbound [6]: 0.017; CLint (Hepatocyte): 72 µL/min/1e6 cells; fraction unbound [7]: 0.015; CLint (Liver microsome): 56 µL/min/mg; IC50 [8]: 31.6 nM; solubility [3]: 2.9 µM; clearance [9]: 19 mL/min/kg; bioavailability [10]: 12%; Vd [11]: 1.4 L/kg
Cc1cc(COc2ccc(F)cc2)nc(-c2ccccn2)n1,3,631,
CC1(C)CN(c2cc(COc3ccc(F)c(F)c3F)nc(-c3ccccn3)n2)C1,4.3,25.1,
CC1(C#N)CN(c2cc(COc3ccc(F)c(F)c3F)nc(-c3ccccn3)n2)C1,3.3,158,inhibition in vivo at 80 mg/kg (Rattus norvegicus [12]): 70%; inhibition [13]: Active; Fa [4]: 56%; CL free (Rattus norvegicus [5]): 540 mL/min/kg; fraction unbound [6]: 0.056; CLint (Hepatocyte): 26 µL/min/1e6 cells; fraction unbound [7]: 0.048; Activity (Rattus norvegicus [14]): Non-toxic; CLint (Liver microsome): 52 µL/min/mg; IC50 [8]: 63.1 nM; solubility [3]: 2.9 µM; Activity (Rattus norvegicus [15]): Non-toxic; inhibition [16]: inactive; clearance [9]: 30 mL/min/kg; bioavailability [10]: 32%; Vd [11]: 3 L/kg
Cc1cc(COc2ccc(F)c(F)c2F)nc(-c2ccccn2)n1,3.3,251,Fa [4]: 59%; CL free (Rattus norvegicus [5]): 380 mL/min/kg; fraction unbound [6]: 0.063; CLint (Hepatocyte): 17 µL/min/1e6 cells; fraction unbound [7]: 0.03; CLint (Liver microsome): 57 µL/min/mg; IC50 [8]: 200 nM; solubility [3]: 22 µM; clearance [9]: 24 mL/min/kg; bioavailability [10]: 39%; Vd [11]: 2.3 L/kg

# Source: ChEMBL document CHEMBL3739339, “Discovery of a series of 2-(pyridinyl)pyrimidines as potent antagonists of GPR40” (Medchemcomm, 2015)
